The values below come from patent US8946124B2, “Substituted 3-(biphenyl-3-yl)-8,8-difluoro-4-hydroxy-1-azaspiro[4.5]dec-3-en-2-ones for therapy and halogen-substituted spirocyclic ketoenols” (Bayer Intellectual Property GmbH, priority 2011, dated 2015).

Data set [1] is described as follows: Maximum tolerated dose (MTD) in the mouse. Type of data set: in vivo. The conditions noted are these: female nude mice, 21 days. As for the experimental part:
The MTD was defined as the highest dose which could be administered without any animal dying during the treatment phase, and without any body weight loss of more than 10% compared to the initial weight.
Example 1-1 was administered to female nude mice (NMRI nu/nu):
(§1) Administration route: per os
• (Solutol HS15: polyoxyethylene ester of 12-hydroxystearic acid) Administration volume:10 ml/kg Protocol: see Table 7
The treatment phase was followed by an observation phase of 21 days.

A short description of data set [2]: Pharmacokinetic parameters in the rat (i.v. and intragastric). The settings on record: intragastric vs. i.v. Type of data set: in vivo. On the procedure:
For this, the test substances were applied in dissolved form both for intravenous, and for intragastric application, wherein compatible solubilizers such as PEG400 and/or ethanol were used in a compatible amount.
The test substances were applied at a dose of 0.1-1 mg/kg. Administration was as a bolus injection in the male rat and as an infusion in the female dog (15 min). At various time points after the bolus injection, and before and after the 15-minute infusion, blood samples of about 100-150 μl were removed via a catheter either from the jugular vein (rat) or from the saphenous vein (dog). Lithium-heparin was added as anticoagulant to the blood samples and they were stored in a refrigerator until required for further processing. After centrifugation of the samples for 15 min at 3000 rpm, an aliquot of 100 μl was taken from the supernatant (plasma) and was precipitated by adding 400 μl of cold ACN or methanol (absolute). The precipitated samples were frozen-out at […] overnight, then centrifuged again at 3000 rpm for 15 min, before 150 μl of the clear supernatant were removed to determine the concentration. The analysis was effected by means of an Agilent 1200 HPLC system with connected LCMS/MS detection. […]

Data set [3] concerns Phaedon cochleariae. The data set is described as follows: Phaedon test (PHAECO spray treatment). The conditions noted are these: 500 g/ha, after 7 days.
Data set [4] has as its system PC-3 prostate carcinoma xenograft. The data set is described as follows: In-vivo efficacy in the PC3 xenograft model in the mouse. The settings on record: 17 days, 2 administrations per day; for T/C: final tumor weight. On the procedure: as §1
Administration volume: 10 ml/kg

In data set [5] the test system is Spodoptera frugiperda. The data set is described as follows: Spodoptera frugiperda test (SPODFR spray treatment). Type of data set: in vivo. The settings on record: 500 g/ha, after 7 days. An excerpt:
(§2) Solvents: 78.0 parts by weight of acetone

Data set [6] in a line: Octanol/water distribution coefficient (log P/D), isocratic HPLC method. Type of data set: physicochemical. The conditions noted are these: pH 7.4; mean (range, n); read-out: logP/D pH 7.4. The source says: The distribution coefficient octanol/water P or D is a key parameter for estimating membrane penetration and permeability. It is defined as the ratio of the equilibrium concentrations of a substance in the two-phase system octanol/water.
[formula] P=partition D=distribution c(octanol)=concentration of the substance in the octanol phase c(water)=concentration of the substance in the aqueous phase
It is usually stated in form of the decadic logarithm (log P or log D).
log P describes the distribution behavior of a substance exclusively present in its neutral form. logD describes the distribution behavior of a substance at a certain pH; depending on the ionisation constant pKa of the substance, some of the substance may be present in ionic form, and some in neutral form.
The log P/D of the active compounds was determined using an isocratic HPLC method (HPLC=high performance liquid chromatography) (literature: OECD Guideline for Testing of Chemicals No. 117). The method is based on the correlation of the HPLC retention time of the test substance to that of reference substances with known distribution coefficients.
The test substance was employed as a 10 mM solution in DMSO (DMSO=dimethyl sulfoxide). 10 μl of this solution were made up to 100 μl with a methanol/water mixture in a ratio of 7+3.
The nine reference substances were dissolved individually in methanol. 100 μl each of the stock solutions were added to an HPLC vial and mixed with 300 μl of water.
A formamide solution was used to determine the hold-up time. To this end, 7 mg of formamide were dissolved in 10 ml of methanol. 100 μl of this stock solution were mixed with 500 μl of methanol and 200 μl of water.
All solutions were chromatographed using a flow rate of 1.00 ml/min.
Injection Protocol: formamide, references, test substance 1, test substance 2, . . . , formamide, references.
Evaluation of the retention times was carried out in a diode array detector (DAD) at 200-400 nm. Via the molecular mass, the identity of the test substance was checked using the downstream mass spectrometer.
The HPLC run was evaluated using the Waters software Masslynx 4.1.
The log P/D values were calculated using the software “POW Determination” (proprietary development).

Data set [7] relates to Myzus persicae. The data set is described as follows: Myzus test (MYZUPE spray treatment). Type of data set: in vivo. The conditions noted are these: 500 g/ha, after 6 days.
Data set [8] concerns Tetranychus urticae. The data set is described as follows: Tetranychus test, OP-resistant (TETRUR spray treatment). Type of data set: in vivo. The conditions noted are these: 100 g/ha, after 6 days. On the procedure:
as §2
After 6 days, the effect in % is determined.
Tetranychus Test, OP-Resistant (TETRUR Spray Treatment)

The mark [9] stands for this setting: 80 mg/kg day 1-3, 70 mg/kg from day 4 onwards, per os.

Turning to `Cc1ccc(-c2ccc(Cl)c(F)c2)cc1C1=C(O)C2(CCC(F)(F)CC2)NC1=O` [Example 1-1, 3-(4′-Chloro-3′-fluoro-4-methylbiphenyl-3-yl)-8,8-difluoro-4-hydroxy-1-azaspiro[4.5]dec-3-en-2-one], the Deaths in data set [1] (12.5 mg/kg per os, 1 administration per day) is 0 of 4; in data set [1] (25 mg/kg per os, 1 administration per day), 0 of 4; in data set [1] (50 mg/kg per os, 1 administration per day) it was 0 of 4; in data set [1] (50 mg/kg per os, 2 administrations per day), 0 of 4; in data set [1] (75 mg/kg per os, 1 administration per day), 0 of 4; in data set [1] (100 mg/kg per os, 1 administration per day) it was 0 of 4. The Deaths in data set [4] (40 mg/kg per os) and in data set [4] (setting [9]) was 0 of 9 each time. Further, the F in data set [2] is given as 95%. Moreover, the “effect in % (beetle larvae killed)” value in data set [3] is recorded as 100%. Besides, the T/C in data set [4] (40 mg/kg per os) and in data set [4] (setting [9]) was 0.26 throughout. Moreover, in data set [5], the “effect in % (caterpillars killed)” value amounted to 100%. The chromatographic logD in data set [6] came out at 1.9. The “effect in % (aphids killed)” value in data set [7] is on record as 90%. In addition, the “effect in % (spider mites killed)” value in data set [8] is 90%.
